Test results published in patent publication US8501786B2, “Hydroxymethyl pyrrolidines as beta 3 adrenergic receptor agonists” (Merck Sharp & Dohme Corp., priority 2009, dated 2013).
Counter-ions that a name gives are not always drawn.

Biological target: T1, human β3 adrenergic receptor (Homo sapiens, UniProt P13945)
T1 construct: stably transfected with the cloned β-adrenergic receptor (β1, β2 or β3); expressed in transfected cells; host or cells: Chinese hamster ovary (CHO) cells, stably transfected
T1 sequence (P13945 whole entry): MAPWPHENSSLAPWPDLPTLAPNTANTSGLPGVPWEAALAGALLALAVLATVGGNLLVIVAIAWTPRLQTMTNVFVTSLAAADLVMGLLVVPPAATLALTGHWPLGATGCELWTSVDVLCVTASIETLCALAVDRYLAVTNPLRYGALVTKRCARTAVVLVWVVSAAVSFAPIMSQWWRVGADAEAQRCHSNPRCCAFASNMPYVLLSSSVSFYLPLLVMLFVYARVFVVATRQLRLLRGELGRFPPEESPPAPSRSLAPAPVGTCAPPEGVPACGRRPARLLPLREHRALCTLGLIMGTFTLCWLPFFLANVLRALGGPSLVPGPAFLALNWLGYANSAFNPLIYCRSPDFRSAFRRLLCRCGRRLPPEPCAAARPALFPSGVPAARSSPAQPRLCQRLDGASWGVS
Assay: Functional assay: cAMP production (LANCE TR-FRET) in CHO cells stably transfected with cloned β3 adrenergic receptor
Format: cell-based
Conditions: Table 4; cAMP production, CHO cells expressing human β3 AR; read-out: Human β3 functional

`O=S(=O)(Nc1ccc(CC2CC[C@H]([C@H](O)c3cccnc3)N2)cc1)c1ccc2ncsc2c1` (stereo partly drawn) [Example 231] and `N#Cc1cccc(S(=O)(=O)Nc2ccc(CC3CC[C@H]([C@H](O)c4cccnc4)N3)cc2)c1` (stereo partly drawn) [Example 236] fall in the same range of EC50: 101 to 1000 nM for the first, 101 to 1000 nM for the second.

First: O=S(=O)(Nc1ccc(CC2CC[C@H]([C@H](O)c3cccnc3)N2)cc1)c1ccc(-c2cnco2)cc1 (stereo partly drawn) [Example 232]
Second: N#Cc1ccc(S(=O)(=O)Nc2ccc(CC3CC[C@H]([C@H](O)c4cccnc4)N3)cc2)cc1 (stereo partly drawn) [Example 237]
The EC50 of the first is lower: 11 to 100 nM for the first, 101 to 1000 nM for the second. The first is the more potent here.

`O=C(N1CCc2ccc(S(=O)(=O)Nc3ccc(CC4CC[C@H]([C@H](O)c5cccnc5)N4)cc3)cc2C1)C(F)(F)F` (stereo partly drawn) [Example 233] and `O=c1ccc2cc(S(=O)(=O)Nc3ccc(CC4CC[C@H]([C@H](O)c5cccnc5)N4)cc3)ccc2o1` (stereo partly drawn) [Example 234] fall in the same range of EC50: 101 to 1000 nM for the first, 101 to 1000 nM for the second.

`N#Cc1ccccc1S(=O)(=O)Nc1ccc(CC2CC[C@H]([C@H](O)c3cccnc3)N2)cc1` (stereo partly drawn) [Example 235] and `O=S(=O)(Nc1ccc(CC2CC[C@H]([C@H](O)c3cccnc3)N2)cc1)c1ccccc1I` (stereo partly drawn) [Example 238] fall in the same range of EC50: 101 to 1000 nM for the first, 101 to 1000 nM for the second.

Same assay, conditions: Table 5; human β3 functional activity given as ranges; read-out: Human β3 functional

`Nc1nc(CC(=O)Nc2ccc(CC3CC[C@H]([C@H](O)c4cccnc4)N3)cc2Br)cs1` (stereo partly drawn) [Example 242] showed an EC50 of 101 to 1000 nM.

Same assay, conditions: Table 6; human β3 functional activity given as ranges; read-out: Human β3 functional

Compared with `CC(C(=O)Nc1ccc(C[C@@H]2CC[C@H]([C@H](O)c3cccnc3)N2)cc1)N(C)C(=O)c1ccccn1` (stereo partly drawn) [Example 247], `CC(C(=O)Nc1ccc(C[C@@H]2CC[C@H]([C@H](O)c3cccnc3)N2)cc1)N(C)C(=O)c1ccccc1F` (stereo partly drawn) [Example 248] is lower in EC50: 101 to 1000 nM for the first, 11 to 100 nM for the second. The second is the more potent here.

`CC(=O)NC(C)C(=O)Nc1ccc(C[C@@H]2CC[C@H]([C@H](O)c3cccnc3)N2)cc1` (stereo partly drawn) [Example 249] and `CC(N)C(=O)Nc1ccc(C[C@@H]2CC[C@H]([C@H](O)c3cccnc3)N2)cc1` (stereo partly drawn) [Example 254] fall in the same range of EC50: 11 to 100 nM for the first, 11 to 100 nM for the second.

`CC(NC(=O)c1c(F)cccc1F)C(=O)Nc1ccc(C[C@@H]2CC[C@H]([C@H](O)c3cccnc3)N2)cc1` (stereo partly drawn) [Example 250] and `CC(NC(=O)c1cccc(F)c1F)C(=O)Nc1ccc(C[C@@H]2CC[C@H]([C@H](O)c3cccnc3)N2)cc1` (stereo partly drawn) [Example 255] cannot be ordered by EC50: < 1 nM for the first, < 1 nM for the second.

Compared with `CC(NC(=O)c1cscn1)C(=O)Nc1ccc(C[C@@H]2CC[C@H]([C@H](O)c3cccnc3)N2)cc1` (stereo partly drawn) [Example 251], `CC(NC(=O)c1cnccn1)C(=O)Nc1ccc(C[C@@H]2CC[C@H]([C@H](O)c3cccnc3)N2)cc1` (stereo partly drawn) [Example 253] is higher in EC50: 1 to 10 nM for the first, 11 to 100 nM for the second. The first is the more potent here.

`CC(NC(=O)c1nc[nH]n1)C(=O)Nc1ccc(C[C@@H]2CC[C@H]([C@H](O)c3cccnc3)N2)cc1` (stereo partly drawn) [Example 252] and `CC(NC(=O)c1ccc(F)cc1)C(=O)Nc1ccc(C[C@@H]2CC[C@H]([C@H](O)c3cccnc3)N2)cc1` (stereo partly drawn) [Example 259] fall in the same range of EC50: 1 to 10 nM for the first, 1 to 10 nM for the second.

`CC(NS(=O)(=O)c1ccccc1F)C(=O)Nc1ccc(C[C@@H]2CC[C@H]([C@H](O)c3cccnc3)N2)cc1` (stereo partly drawn) [Example 256] and `CC(NS(=O)(=O)c1ccccc1)C(=O)Nc1ccc(C[C@@H]2CC[C@H]([C@H](O)c3cccnc3)N2)cc1` (stereo partly drawn) [Example 257] fall in the same range of EC50: 11 to 100 nM for the first, 11 to 100 nM for the second.

First: CC(NS(=O)(=O)Cc1ccccc1)C(=O)Nc1ccc(C[C@@H]2CC[C@H]([C@H](O)c3cccnc3)N2)cc1 (stereo partly drawn) [Example 258]
Second: CC(NC(=O)c1ccccc1)C(=O)Nc1ccc(C[C@@H]2CC[C@H]([C@H](O)c3cccnc3)N2)cc1 (stereo partly drawn) [Example 260]
The EC50 of the first is higher: 11 to 100 nM for the first, < 1 nM for the second. The second is the more potent here.

In the case of `CC(C(=O)Nc1ccc(C[C@@H]2CC[C@H]([C@H](O)c3cccnc3)N2)cc1)N(C)C(=O)c1ccccc1F` (stereo partly drawn) [Example 261], the EC50 is reported as 11 to 100 nM.

Same assay, conditions: cAMP production, CHO cells expressing human β3 AR; read-out: human Beta-3 agonist functional activity

`CCCCCCNC(=O)Nc1ccc(S(=O)(=O)Nc2ccc(C[C@@H]3CC[C@H]([C@H](O)c4cccnc4)N3)cc2)cc1` [Example 239, 4-{[(Hexylamino)carbonyl]amino}-N-[4-({(2S,5R)-5-[(R)-hydroxy(pyridin-3-yl)methyl]pyrrolidin-2-yl}methyl)phenyl]benzenesulfonamide, trifluoroacetic acid salt] and `C[C@H](NS(=O)(=O)c1ccc(F)cc1)C(=O)Nc1ccc(C[C@@H]2CC[C@H]([C@H](O)c3cccnc3)N2)cc1` [Example 246, (2S)-2-{[(4-Fluorophenyl)sulfonyl]amino}-N-[4-({(2S,5R)-5-[(R)-hydroxy(pyridin-3-yl)methyl]pyrrolidin-2-yl}methyl)phenyl]propanamide] cannot be ordered by EC50: < 10 nM for the first, < 100 nM for the second.

`C[C@H](NC(=O)c1ccccc1F)C(=O)Nc1ccc(C[C@@H]2CC[C@H]([C@H](O)c3cccnc3)N2)cc1` [Example 245, 2-Fluoro-N-((1S)-2-{[4-({(2S,5R)-5-[(R)-hydroxy(pyridin-3-yl)methyl]pyrrolidin-2-yl}methyl)phenyl]amino}-1-methyl-2-oxoethyl)benzamide, trifluoracetic acid salt] and `O=C(Nc1ccc(C[C@@H]2CC[C@H]([C@H](O)c3cncc(F)c3)N2)cc1)[C@@H]1CCc2scnc21` [Example 262, (4R)—N-[4-({(2S,5R)-5-[(R)-(5-fluoropyridin-3-yl)(hydroxy)methyl]pyrrolidin-2-yl}methyl)phenyl]-5,6-dihydro-4H-cyclopenta[d][1,3]thiazole-4-carboxamide, trifluoroacetic acid salt] cannot be ordered by EC50: < 1 nM for the first, < 10 nM for the second.

Biological target: T2, β3AR (Rattus norvegicus, UniProt P26255)
T2 construct: Following intravenous administration to rats; host or cells: living rats (bladder, in vivo)
T2 sequence (P26255 whole entry): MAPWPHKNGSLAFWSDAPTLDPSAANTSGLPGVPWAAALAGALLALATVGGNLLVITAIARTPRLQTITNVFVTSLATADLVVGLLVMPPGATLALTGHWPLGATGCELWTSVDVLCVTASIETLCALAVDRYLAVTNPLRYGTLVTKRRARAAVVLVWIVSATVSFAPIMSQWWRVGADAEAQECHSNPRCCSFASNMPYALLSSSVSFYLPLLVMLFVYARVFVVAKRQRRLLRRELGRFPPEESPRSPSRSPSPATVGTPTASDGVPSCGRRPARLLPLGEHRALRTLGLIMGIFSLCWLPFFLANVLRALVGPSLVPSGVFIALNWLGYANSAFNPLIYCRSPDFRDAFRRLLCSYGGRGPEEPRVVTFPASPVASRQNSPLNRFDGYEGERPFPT
Assay: not given
Conditions: rats, intravenous administration, cystometric studies; cited from earlier work

For `C[C@H](Cc1ccc2c(c1)OC(C(=O)[O-])(C(=O)[O-])O2)NC[C@H](O)c1cccc(Cl)c1.[Na+].[Na+]` [CL316243], the bladder capacity is given as “increases bladder capacity”.

Same assay, conditions: rats, intravenous administration; cited from earlier work

In the case of `C[C@H](Cc1ccc2c(c1)OC(C(=O)[O-])(C(=O)[O-])O2)NC[C@H](O)c1cccc(Cl)c1.[Na+].[Na+]` [CL316243], the bladder pressure is listed as “reduces bladder pressure”.
